Measurements taken from patent US9006250B2, “4-amino-6-(heterocyclic)picolinates and 6-amino-2-(heterocyclic)pyrimidine-4-carboxylates and their use as herbicides” (Dow AgroSciences, LLC, priority 2013, dated 2015).

Legend:
[1] = test system: AVEFA: wild oats (Avena fatua); assay: Post-Emergent Test I herbicidal activity; format: in vivo; conditions: 4 Kg ai/ha
Description: (§1) Post-Emergent Test I: Seeds test species were obtained from commercial suppliers and planted into a 5″-round pot containing soil-less media mix (Metro-Mix 360®, Sun Gro Horticulture). Postemergence treatments were planted 8-12 days (d) prior to application and cultured in a greenhouse equipped with supplemental light sources to provide a 16 hour (h) photoperiod at 24-29° C. All pots were surface irrigated. Approximately 10 milligrams (mg) of each compound were dissolved in 1.3 mL acetone-DMSO (97:3, v/v) and diluted with 4.1 mL water-isopropanol-crop oil concentrate (78:20:2, v/v/v) containing 0.02% Triton X-155. Treatments were serial diluted with the above formulation solvent to provide 1.85, 0.926, 0.462 and 0.231 mg/mL of test compound delivered in 2.7 mL/pot (roughly equivalent to 4.0, 2.0, 1.0, and 0.5 kg/ha, respectively). Formulated compounds were applied using a DeVilbiss® compressed air sprayer at 2-4 pounds per square inch (psi). Following treatment, pots were returned to the greenhouse for the duration of the experiment. All pots were sub-irrigated as need to provide optimum growing conditions. All pots were fertilized one time per week by subirrigating with Peters Peat-Lite Special® fertilizer (20-10-20). Phytotoxicity ratings were obtained 10 days after treatment postemergence applications. All evaluations were made visually on a scale of 0 to 100 where 0 represents no activity and 100 represents complete plant death. Visual assessments of plant injury were made based on growth reduction, discoloration, leaf deformity and necrosis.

[2] = test system: ECHCG: barnyardgrass (Echinochloa crus-galli); assay: Post-Emergent Test I herbicidal activity; format: in vivo; conditions: 4 Kg ai/ha
Description: as §1

[3] = test system: HELAN: sunflower (Helianthus annuus); assay: Post-Emergent Test I herbicidal activity; format: in vivo; conditions: 4 Kg ai/ha
Description: as §1

[4] = test system: IPOHE: ivyleaf morningglory (Ipomoea hederecea); assay: Post-Emergent Test I herbicidal activity; format: in vivo; conditions: 4 Kg ai/ha
Description: as §1

[5] = test system: SETFA: giant foxtail (Setaria faberi); assay: Post-Emergent Test I herbicidal activity; format: in vivo; conditions: 4 Kg ai/ha
Description: as §1

Q: For `COC(=O)c1nc(-c2ccc3nonc3c2F)cc(N)c1Cl` [Compound 6, Methyl 4-amino-3-chloro-6-(4-fluorobenzo[c][1,2,5]oxadiazol-5-yl)picolinate], which “Visual Growth Reduction (%) 10 Days After Application AVEFA” value [1] is on record?
A: G (0-29)

Q: What about the “Visual Growth Reduction (%) 10 Days After Application ECHCG” value [2] of the same compound?
A: G (0-29)

Q: What about the “Visual Growth Reduction (%) 10 Days After Application HELAN” value [3] of the same compound?
A: G (0-29)

Q: And the “Visual Growth Reduction (%) 10 Days After Application IPOHE” value [4]?
A: G (0-29)

Q: What about the “Visual Growth Reduction (%) 10 Days After Application SETFA” value [5] of the same compound?
A: G (0-29)

Q: With `Nc1cc(-c2cc3nonc3cc2F)nc(C(=O)O)c1Cl` [Compound 7] as the compound, how does the melting point read?
A: 177 to 178 °C
